Measurements reported in patent US20240246954A1, “COMPOSITIONS AND METHODS FOR INHIBITING KRAS” (TheRas, Inc., priority 2021, published 2024).

Assays:
[1] = molecular target: T1, Avi-KRAS G12D (1-169) GppNHp/RAF1 RBD-3×FLAG (52-151) (Homo sapiens, UniProt P01116, G12D); assay: HTRF Raf1-KRAS G12D-GppNHp disruption assay; assay type: biochemical; settings: 1 h incubation
T1 construct: Avi-KRAS G12D (1-169) GppNHp
Method: (§1) The HTRF assay employed the following protocol:
(§2) Compounds were dispensed in assay plate (384-well, Grenier Bione #784075) using Echo (model 555) with dose response settings: 200 nL final volume, titration from 100 μM as a 10-point dilution series. Protein mix was prepared in assay buffer, and dispensed on plates, 10 μL per well, then incubated for 1 h at room temperature, with 700 rpm shaking. Reagents mix was prepared and dispensed on plates, 10 μL per well, then incubated for 1 h at room temperature, with 700 rpm shaking.
(§3) Plates were analyzed on an Envision plate reader using the following setting: Excitation 320 nm, Bandwidth […]; Emission 615 nm, Bandwidth […], Gain 100%, Flashes 100, Lag 60 μs. Data was reported as percentage of activity, with DMSO as 100%. Data was plotted and analyzed using Prism 8.

[2] = molecular target: T2, Avi-KRAS G12D/Q25A (1-169) GppNHp/3×FLAG-PI3KCA (157-299) (Homo sapiens, UniProt P01116, G12D/Q25A); assay: HTRF PI3KCA-KRAS G12D/Q25A-GppNHp disruption assay; assay type: biochemical; settings: 1 h incubation
T2 construct: Avi-KRAS G12D/Q25A (1-169) GppNHp
Method: as §1, §2, §3

T2 sequence (P01116 1-169 isoform P01116-2 G12D/Q25A limits assumed): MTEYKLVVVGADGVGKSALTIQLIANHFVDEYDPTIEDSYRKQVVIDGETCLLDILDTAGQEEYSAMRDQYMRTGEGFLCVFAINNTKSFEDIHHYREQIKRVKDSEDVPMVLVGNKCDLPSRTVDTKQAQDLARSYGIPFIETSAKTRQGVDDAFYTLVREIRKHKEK
T1 sequence (P01116 1-169 isoform P01116-2 G12D limits assumed): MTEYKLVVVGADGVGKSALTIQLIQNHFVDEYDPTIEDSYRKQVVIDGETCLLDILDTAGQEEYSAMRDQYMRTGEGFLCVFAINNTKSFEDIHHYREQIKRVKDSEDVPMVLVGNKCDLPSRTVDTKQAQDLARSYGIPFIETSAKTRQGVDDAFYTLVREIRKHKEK

IC50 [1] | IC50 [2] | Compound
1 to 10 µM | 1 to 10 µM | CN1CCC[C@H]1COc1nc(N[C@H]2C[C@H](N)C2)c2cc(Cl)c(-c3ccc(F)c4sc(N)nc34)c(F)c2n1 (atropisomer, axis not shown) [Compound 83]
0.1 to 1 µM | 0.1 to 1 µM | CN(c1nc(OCC23CCCN2CCC3)nc2c(F)c(-c3ccc(F)c4sc(N)nc34)c(C(F)(F)F)cc12)[C@H]1C[C@@H](N)C1 (atropisomer, axis not shown) [Compound 250]
1 to 10 µM | 10 to 30 µM | CN(c1nc(OCC23CCCN2CCC3)nc2c(F)c(-c3ccc(F)c4sc(N)nc34)c(C(F)(F)F)cc12)[C@H]1C[C@@H]2CC[C@H]1N2 (atropisomer, axis not shown) [Compound 270]
0.1 to 1 µM | 1 to 10 µM | CN(c1nc(OCC23CCCN2CCC3)nc2c(F)c(-c3ccc(F)c4sc(N)nc34)c(C(F)(F)F)cc12)[C@H]1C[C@H]2CC[C@@H]1N2 (atropisomer, axis not shown) [Compound 271]
1 to 10 µM | 1 to 10 µM | CN(c1nc(OCC23CCCN2CCC3)nc2c(F)c(-c3ccc(F)c4sc(N)nc34)c(C(F)(F)F)cc12)[C@@H]1CCN(C(=O)CN)C1 (atropisomer, axis not shown) [Compound 277]
1 to 10 µM | 1 to 10 µM | CN(c1nc(OCC23CCCN2CCC3)nc2c(F)c(-c3ccc(F)c4sc(N)nc34)c(C(F)(F)F)cc12)[C@@H]1CCN(C(N)=O)C1 (atropisomer, axis not shown) [Compound 278]
10 to 30 µM | 1 to 10 µM | CN(c1nc(OCC23CCCN2CCC3)nc2c(F)c(-c3ccc(F)c4sc(N)nc34)c(C(F)(F)F)cc12)[C@@H]1CCN(C(N)=O)C1 (atropisomer, axis not shown) [Compound 279]
1 to 10 µM | 1 to 10 µM | Nc1nc2c(-c3c(C(F)(F)F)cc4c(N[C@H]5C[C@@H]6CC[C@H]5N6)nc(OCC56CCCN5CCC6)nc4c3F)ccc(F)c2s1 (atropisomer, axis not shown) [Compound 287]
0.1 to 1 µM | 1 to 10 µM | CN(c1nc(OCC23CCCN2CCC3)nc2c(F)c(-c3ccc(F)c4sc(N)nc34)c(C(F)(F)F)cc12)[C@H]1CC[C@@H](N)CC1 (atropisomer, axis not shown) [Compound 294]
1 to 10 µM | 1 to 10 µM | CN(c1nc(OCC23CCCN2CCC3)nc2c(F)c(-c3ccc(F)c4sc(N)nc34)c(C(F)(F)F)cc12)[C@@H]1CCNC1 (single isomer, unassigned) [Compound 238]
1 to 10 µM | – | CN1CCC[C@H]1COc1nc(NC2CN(C(=O)CN)C2)c2cc(C(F)(F)F)c(-c3ccc(F)c4sc(N)nc34)c(F)c2n1 [Compound 130]
10 to 30 µM | – | NC(=O)N1CC(Nc2nc(OCC34CCCN3CCC4)nc3c(F)c(-c4ccc(F)c5sc(N)nc45)c(-c4ccoc4)cc23)C1 [Compound 167]
10 to 30 µM | – | Nc1nc2c(-c3c(C(F)(F)F)cc4c(N5CCNCC5)nc(OC[C@@H]5CCCN5CCF)nc4c3F)ccc(F)c2s1 [Compound 168]
10 to 30 µM | – | Nc1nc2c(-c3c(C(F)(F)F)cc4c(N5CCNCC5)nc(OC[C@]56CCCN5C[C@H](F)C6)nc4c3F)ccc(F)c2s1 [Compound 169]
1 to 10 µM | – | CN(c1nc(OCC23CCCN2CCC3)nc2c(F)c(-c3ccc(F)c4sc(N)nc34)c(C(F)(F)F)cc12)C1CN(C(=O)CN)C1 [Compound 171]
10 to 30 µM | – | Nc1nc2c(-c3c(C(F)(F)F)cc4c(N5CCNCC5)nc(OC[C@@H]5CCCN5CC(F)F)nc4c3F)ccc(F)c2s1 [Compound 172]
1 to 10 µM | – | CN(c1nc(OCC23CCCN2CCC3)nc2c(F)c(-c3ccc(F)c4sc(N)nc34)c(C(F)(F)F)cc12)C1CN(C(N)=O)C1 [Compound 173]
10 to 30 µM | – | NCC(=O)N1CCN(c2nc(OC[C@@H]3CCCN3CC(F)F)nc3c(F)c(-c4ccc(F)c5sc(N)nc45)c(C(F)(F)F)cc23)CC1 [Compound 193]
1 to 10 µM | – | Nc1nc2c(-c3c(-c4ccoc4)cc4c(N5CC6CC(C5)N6)nc(OCC56CCCN5CCC6)nc4c3F)ccc(F)c2s1 [Compound 194]
